Experimental data reported in patent publication US20110039763A1, “TARGETED ANTIMICROBIAL MOIETIES” (C3 JIAN, INC., priority 2009, published 2011).
Entries after “also recorded” stand apart in the source; their conditions may differ.

The substances below were run on microorganisms (assay: Targeting peptide binding to target microorganisms (Tables 3, 10, 12)). Conditions: microorganism(s) the targeting peptide binds; binding in aqueous buffers varied with peptide solubility, preferably 1x PBS.

Row | Substance | Target(s)
1 | PF-372 (KKQDKRIEDKYKRMKKGD; Peptide with targeting and/or antimicrobial activity) | C. jeikeium; also recorded: C. jejuni
2 | PF-384 (HISKERFEAY; Peptide with targeting and/or antimicrobial activity) | E. faecalis; also recorded: C. jeikeium; also recorded: C. jejuni
3 | PF-388 (ITPLLDEIGKVCIDKISK; Peptide with targeting and/or antimicrobial activity) | E. faecalis; also recorded: C. jeikeium; also recorded: C. jejuni
4 | PF-400 (VIAWKFRNKFENSGV; Peptide with targeting and/or antimicrobial activity) | S. epidermidis; also recorded: E. coli; also recorded: S. pneumoniae; also recorded: E. faecalis; also recorded: C. jeikeium
5 | PF-402 (FIDVLKSKINEFLN; Peptide with targeting and/or antimicrobial activity) | S. epidermidis; also recorded: P. aeruginosa; also recorded: E. faecalis; also recorded: C. jejuni
6 | PF-409 (DLVQSILSEFKKSG; Peptide with targeting and/or antimicrobial activity) | S. epidermidis and MRSA and C. jeikeium and C. jejuni
7 | PF-412 (TSGWLGQLEQ; Peptide with targeting and/or antimicrobial activity) | M. luteus; also recorded: E. coli; also recorded: C. albicans; also recorded: C. jeikeium; also recorded: C. jejuni
8 | PF-435 (MSRWDGHSDKGEAPAGKPPMHGFGLNGENK; Peptide with targeting and/or antimicrobial activity) | C. jeikeium
9 | PF-436 (KKHVLVGKQEKNG; Peptide with targeting and/or antimicrobial activity) | C. jeikeium
10 | PF-438 (QPYFQNQFKKITGYTPLQYRKEKR; Peptide with targeting and/or antimicrobial activity) | S. epidermidis; also recorded: E. coli; also recorded: S. pneumoniae; also recorded: C. jeikeium; also recorded: C. jejuni
11 | PF-441 (TQVHKMARGIDPGPANGIYR; Peptide with targeting and/or antimicrobial activity) | C. jeikeium
12 | PF-463 (MVILVFSLIFIFTDNYLVYQSKSIKEDVMI; Peptide with targeting and/or antimicrobial activity) | S. epidermidis; also recorded: E. coli; also recorded: P. aeruginosa; also recorded: C. albicans; also recorded: S. pneumoniae; also recorded: E. faecalis; also recorded: M. smegmatis
13 | PF-481 (DELYEIMDKVIEEFNKDIEQNNNNGNNEDLTENKIN; Peptide with targeting and/or antimicrobial activity) | C. jeikeium
14 | PF-483 (EDNKDKKDKKDK; Peptide with targeting and/or antimicrobial activity) | P. mirabilis; also recorded: C. jeikeium; also recorded: C. jejuni
15 | PF-486 (MQKEGEEDY; Peptide with targeting and/or antimicrobial activity) | S. mutans
16 | PF-487 (MYKAIAVLAMTIMAFFIFVYPFFIVGLILG; Peptide with targeting and/or antimicrobial activity) | S. mutans; also recorded: E. coli
17 | PF-488 (YPNEQGHHKNNLKNIIIE; Peptide with targeting and/or antimicrobial activity) | S. mutans; also recorded: E. coli
18 | PF-489 (KVDRVSTTITEKIK; Peptide with targeting and/or antimicrobial activity) | S. mutans
19 | PF-490 (RLILVSGNATVQK; Peptide with targeting and/or antimicrobial activity) | S. mutans; also recorded: E. coli

Row | Substance | Target(s)
20 | PF-491 (IHQYSSKPDIVGQEAKTVQQINS; Peptide with targeting and/or antimicrobial activity) | S. mutans; also recorded: E. coli
21 | PF-492 (IQIDAASFYSISKSTIK; Peptide with targeting and/or antimicrobial activity) | S. mutans; also recorded: B. subtilis; also recorded: E. coli
22 | PF-493 (PGAFFFCRGRGCWCGIGW; Peptide with targeting and/or antimicrobial activity) | S. mutans; also recorded: B. subtilis; also recorded: E. coli
23 | PF-494 (FTEPLRPLQAKGQIISIKPSTSSS; Peptide with targeting and/or antimicrobial activity) | S. mutans
24 | PF-495 (KGIYKKRTY; Peptide with targeting and/or antimicrobial activity) | S. mutans; also recorded: E. coli
25 | PF-496 (EVTKRLVALAQQQLRG; Peptide with targeting and/or antimicrobial activity) | S. mutans; also recorded: E. coli
26 | PF-498 (MSEEEEVSEKVYNYLRRNEFFEVRKEEFSA; Peptide with targeting and/or antimicrobial activity) | S. mutans; also recorded: E. coli
27 | PF-500 (MGIFKEEKIKFIDCKGEEVILKIKIKDIKK; Peptide with targeting and/or antimicrobial activity) | S. mutans; also recorded: E. coli
28 | PF-501 (GSTAHKSPIGSTNNQWGMKKTPTD; Peptide with targeting and/or antimicrobial activity) | S. mutans
29 | PF-502 (NKGKQMQDQTGKQPIVDNG; Peptide with targeting and/or antimicrobial activity) | S. mutans
30 | PF-503 (VVTLKDIVAVIEDQGYDVQ; Peptide with targeting and/or antimicrobial activity) | S. mutans
31 | PF-504 (ILSVELSTKTSASGS; Peptide with targeting and/or antimicrobial activity) | S. mutans; also recorded: E. coli
32 | PF-505 (GYTKDPGTGI; Peptide with targeting and/or antimicrobial activity) | S. mutans
33 | PF-506 (SGRGFALIVVLFILLIIVGAACIR; Peptide with targeting and/or antimicrobial activity) | S. mutans; also recorded: E. coli
34 | PF-507 (LALSIANLFKKKA; Peptide with targeting and/or antimicrobial activity) | S. mutans; also recorded: E. coli
35 | PF-508 (VSTFGKVVKVVDEK; Peptide with targeting and/or antimicrobial activity) | S. mutans
36 | PF-509 (EAKVQAKGEQIACNNY; Peptide with targeting and/or antimicrobial activity) | S. mutans; also recorded: B. subtilis; also recorded: E. coli
37 | PF-510 (WYLYKKQSNQNDRGIPK; Peptide with targeting and/or antimicrobial activity) | S. mutans; also recorded: E. coli
38 | PF-568 (TQAVQVKTAQAQQQ; Peptide with targeting and/or antimicrobial activity) | S. epidermidis

Row | Substance | Target(s)
39 | PF-570 (KKFPTEESHIQAVLEFKKLTEHPSG; Peptide with targeting and/or antimicrobial activity) | S. pneumoniae; also recorded: C. jeikeium
40 | PF-641 (SWKCHHLAIGGSWKCHHLAI; Peptide with targeting and/or antimicrobial activity) | S. epidermidis and M. luteus and E. coli and C. albicans and MRSA and E. faecalis and C. jeikeium and C. jejuni
41 | PF-648 (ARRYPAAGS; Peptide with targeting and/or antimicrobial activity) | S. mutans; also recorded: E. coli
42 | PF-650 (IRSDQPGRQSRSSPRWPTGAGRHR; Peptide with targeting and/or antimicrobial activity) | Mycobacteria spp
43 | PF-669 (RADRIESYPADGDRVITLWRNPYR; Peptide with targeting and/or antimicrobial activity) | Mycobacteria spp
44 | PF-671 (TVSAFRTVH; Peptide with targeting and/or antimicrobial activity) | S. mutans; also recorded: E. coli
45 | PF-673 (VRRLRM; Peptide with targeting and/or antimicrobial activity) | S. mutans; also recorded: E. coli
46 | PF-674 (DGCDSEPALTYR; Peptide with targeting and/or antimicrobial activity) | S. mutans; also recorded: E. coli
47 | PF-676 (AEYRGL; Peptide with targeting and/or antimicrobial activity) | S. mutans; also recorded: E. coli
48 | PF-678 (RDRRWTRRDMYDWLESARV; Peptide with targeting and/or antimicrobial activity) | Mycobacteria spp
49 | PF-679 (CRARFIRR; Peptide with targeting and/or antimicrobial activity) | S. mutans; also recorded: E. coli
50 | PF-689 (SAPSG; Peptide with targeting and/or antimicrobial activity) | S. mutans; also recorded: E. coli
51 | PF-701 (PRGAQSGHG; Peptide with targeting and/or antimicrobial activity) | S. mutans
52 | PF-703 (MTTVDNIVGLVIAVALMAFLFAALLFPEKF; Peptide with targeting and/or antimicrobial activity) | Mycobacteria spp
53 | PF-705 (GEEEGTVAD; Peptide with targeting and/or antimicrobial activity) | S. mutans; also recorded: E. coli
54 | PF-706 (LGYGAWIGCGLGLNGFHRID; Peptide with targeting and/or antimicrobial activity) | L. pneumophila
55 | PF-707 (IDPESIVTTNNKQDNVDEQ; Peptide with targeting and/or antimicrobial activity) | S. mutans; also recorded: E. coli
56 | PF-709 (NKKHSPMD; Peptide with targeting and/or antimicrobial activity) | S. mutans
57 | PF-711 (KTAGPTGTIYKTN; Peptide with targeting and/or antimicrobial activity) | S. mutans
